Experimental data reported in US10077236B2, “Azacyclic constrained analogs of FTY720” (The Regents of the University of California, priority 2013, dated 2018).
“Also recorded” adds a separate entry of the source.

Legend:
[1] = tested on: PC3 prostate cancer cell line; test: Cell viability assay, PC3; assay type: cell-based, human; details: 72 h, vital dye exclusion and flow cytometry; read-out: Mean IC50 (+/- SEM) in cell viability assay, PC3 prostate
Procedure: (§1) Flow cytometry: Much of the biological activity presented is shown through flow cytometry data. […] Here, IC50 flow cytometry assays were used. […] To measure nutrient receptor expression following exposure to FTY720 and azacyclic constrained analogs of FTY720, surface 4F2hc expression was measured after 3 hours of drug treatment by staining 150,000 cells with phycoerythrin-conjugated mouse anti-human CD98 (by BD Biosciences™). Analysis was restricted to viable cells. All samples for the disclosed sets of data were analyzed on a BD LSR II flow cytometer and data analyzed with FlowJo™ software (by Treestar™). IC50's were calculated and statistical tests were performed using GraphPad Prism™.

[2] = tested on: circulating lymphocytes; test: Lymphocyte sequestration (circulating lymphocytes); assay type: in vivo, mouse; details: number of circulating lymphocytes 12 h after dosage
Source text: (§2) As previously discussed, FTY720 itself cannot be used in cancer patients because phosphorylation of FTY720 by SphKs makes FTY720-P, which acts at S1P receptors to cause bradycardia and immunosuppression (on-target effect for primary use).

[3] = tested on: SphK1 null MEFs; test: Sensitivity of SphK1 null MEFs; assay type: cell-based
Procedure: The importance of phosphorylation in the activity of compound 6 was then examined. In this study MEF knockout lines that show the same differential sensitivity to compound 6 relative to its enantiomers as leukemia cells were used (FIG. 10h). […] A phosphate and a non-phosphorylatable analog of compound 6 were then tested.

[4] = tested on: BCR-Abl+ SFO2 cells; test: Combination with trametinib in BCR-Abl+ SFO2 patient-derived leukemia cells; assay type: cell-based, human; details: cytostatic concentration of trametinib + cytostatic concentration of compound 6
Source text: FIGS. 10n and 10o provide data results from a study of the effectiveness of treating BCR-Abl+ SFO2 cells (10n), and also in BCR-Abl− LAX7R cells (10o), which is a late-stage leukemia resistant to chemotherapy.

[5] = tested on: Blin-1 Ph- ALL cell line; test: Cell viability assay, Blin-1; assay type: cell-based, human; details: 72 h, vital dye exclusion and flow cytometry; read-out: Mean IC50 (+/- SEM) in cell viability assay, Blin-1 Ph- ALL
Source text: (§3) Leukemia cell assays: Effects of chemical changes on ability to kill cells as observed in cell viability assays using the BCR-ABL positive human acute lymphoblastic leukemia (ALL) cell line, Sup-B15 are described. Assays using the Sup-B15 cell line were designed to determine efficacy of azacyclic constrained small molecule analogs of FTY720 in killing leukemia cells. Analogs were generated using the synthesis methods mentioned above. Sup-B15 cells were maintained at 2-3 million/mL in RPMI 1640 (by Mediatech™) supplemented with 10% fetal calf serum (by Sigma-Aldrich™), 10 mM Hepes (by Mediatech™), 55 μM β-mercaptoethanol (by Sigma-Aldrich™), 2 mM L-glutamine (by Mediatech™), and antibiotics. BV173, Nalm-6, and Blin-1 were maintained at 1-2 million/mL and CCRF-CEM at less than 500,000/mL in the same medium. BMp190 cells were created by transducing murine bone marrow cells with pMIC-p190 which expresses the p190 isoform of BCR-Abl and human CD4 from an IRES; these cells were kept at 1-2 million/mL in RPMI supplemented as above.
(§4) Flow cytometry: Much of the biological activity presented is shown through flow cytometry data. […] Here, IC50 flow cytometry assays were used. In them, viability was determined at 72 hours by vital dye exclusion [propium iodide or DAPI (4′,6-diamindino-2-phenylindole)]. To measure nutrient receptor expression following exposure to FTY720 and azacyclic constrained analogs of FTY720, surface 4F2hc expression was measured after 3 hours of drug treatment by staining 150,000 cells with phycoerythrin-conjugated mouse anti-human CD98 (by BD Biosciences™). Analysis was restricted to viable cells.
(§5) All samples for the disclosed sets of data were analyzed on a BD LSR II flow cytometer and data analyzed with FlowJo™ software (by Treestar™). IC50's were calculated and statistical tests were performed using GraphPad Prism™.

[6] = tested on: BV173 Ph+ ALL cell line; test: Cell viability assay, BV173; assay type: cell-based, human; details: 72 h, vital dye exclusion and flow cytometry; read-out: Mean IC50 (+/- SEM) in cell viability assay, BV173 Ph+ ALL
Source text: as §3, §4, §5

[7] = tested on: DU145 prostate cancer cell line; test: Cell viability assay, DU145; assay type: cell-based, human; details: 72 h, vital dye exclusion and flow cytometry; read-out: Mean IC50 (+/- SEM) in cell viability assay, DU145 prostate
Procedure: as §1

[8] = tested on: CCRF-CEM Ph- ALL cell line; test: Cell viability assay, CCRF-CEM; assay type: cell-based, human; details: 72 h, vital dye exclusion and flow cytometry; read-out: Mean IC50 (+/- SEM) in cell viability assay, CCRF-CEM Ph- ALL
Source text: as §3, §4, §5

[9] = Mouse heart rate by telemetry; assay type: in vivo; details: telemetry for 24 h after administration of anti-cancer dose
Source text: as §2

[10] = tested on: Sup-B15 BCR-ABL positive human acute lymphoblastic leukemia (ALL) cell line; test: Cell viability assay, Sup-B15 leukemia cells (flow cytometry, vital dye exclusion); assay type: cell-based; details: for cell death in combination with dasatinib: 72 h
Source text: as §3, §4, §5

[11] = tested on: patient-derived BCR-Abl+ acute lymphoblastic leukemia cells; test: Viability of patient-derived BCR-Abl+ acute lymphoblastic leukemia cells; assay type: cell-based, human; details: 96 h, flow cytometry (vital dye exclusion)
Procedure: Finally, in FIG. 10g dose response curves are provided for studies conducted with patient-derived BCR-Abl+ acute lymphoblastic leukemia cells. Viability was measured at 96 h by flow cytometry (vital dye exclusion).

In the case of CCCCCCCCc1ccc(CO[C@@H]2CN[C@@H](CO)C2)cc1.Cl [Compound 6], the IC50 [1] is reported as 13.5 ± 2.6 µM, the “lymphocyte sequestration / immunosuppression” value [2] is reported as “does not cause immunosuppression” and the “differential sensitivity to compound 6 relative to its enantiomers” value [3] is reported as “this difference is maintained”. The “cell killing, combination with trametinib” value [4] was “kills patient-derived leukemia cells without killing the irradiated stromal cell layer”, the IC50 [5] was 6.9 ± 0.3 µM and the IC50 [6] was 3.8 ± 0.4 µM. For the same compound, the IC50 [7] was 15.1 ± 1 µM, the IC50 [8] was 8.2 ± 0.7 µM and the “effect on heart rate” value [9] was “nor does it decrease heart rate”. For the same compound, the “cell killing at 72 h” value ([10]; 1 μM (=0.5×IC50), alone) was “does not kill”, the “cell death in combination with dasatinib” value ([10]; 1 μM compound 6 + dasatinib 200 nM) was “increases cell death” and the “cell viability at 72 h” value ([10]; 2 μM (1×IC50), alone) was “significantly reduces cell viability”. The “cell death in combination with dasatinib” value ([10]; 2 μM compound 6 + dasatinib) was “increases cell death beyond that caused by compound 6 alone”, the IC50 ([10]; BCR-Abl+ SupB15 leukemia cell line, read-out: IC50) was 2 µM and the “ability to kill leukemia cells, potency compared in words” value ([10]; Sup-B15 cell viability assays) was “activity much greater than compounds 5, 7, and 8; also recorded: enhanced anticancer activity relative to its diasteromeric congeners and to FTY720”. For the same compound, the “killing compared with dasatinib” value ([10]; both drugs at their maximally active dose) was “kills better than dasatinib” and the “potency in dose response, viability” value [11] was “more potent than FTY720 and its enantiomer, compound 39”.
